The values below come from patent publication US5840677A, “Boronic acid or borinic acid derivatives as enzyme stabilizers” (Novo Nordisk A/S, priority 1993, dated 1998).

Assay [1] addresses T1, Savinase (Lederbergia lenta, UniProt P29600).
T1 construct: purchased Novo Nordisk A/S
T1 sequence (P29600 1-269): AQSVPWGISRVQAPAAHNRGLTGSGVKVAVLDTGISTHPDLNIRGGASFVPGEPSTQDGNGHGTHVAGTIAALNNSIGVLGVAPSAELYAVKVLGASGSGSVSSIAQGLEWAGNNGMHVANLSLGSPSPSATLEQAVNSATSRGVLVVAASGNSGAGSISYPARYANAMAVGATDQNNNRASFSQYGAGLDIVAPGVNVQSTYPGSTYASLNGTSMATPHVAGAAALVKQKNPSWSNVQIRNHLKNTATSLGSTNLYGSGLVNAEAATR
The experiment in a line: biochemical. On the set-up: species or system Bacillus. The conditions noted are these: substrate SAAPFpNA; 0.1 M Tris-HCl pH 8.6; 25° C.; Savinase 1-10^-10 -3×10^-10 M. From the text: (§1) c) Determination of Ki : The inhibition constant Ki may be determined by using standard methods, for reference see Keller et al, Biochem. Biophys. Res. Com. 176, 1991, pp.401-405; J. Bieth in Bayer-Symposium "Proteinase Inhibitors", pp. 463-469, Springer-Verlag, 1974 and Lone Kierstein Hansen in "Determination of Specific Activities of Selected Detergent Proteases using Protease Activity, Molecular Weights, Kinetic Parameters and Inhibition Kinetics", PhD-report, Novo Nordisk A/S and University of Copenhagen, 1991.
(§2) The inhibition constants Ki, for the inhibition of Alcalase and Savinase respectively, were determined using standard methods under the following conditions:
(§3) Substrate: Succinyl-Alanine-Alanine-Proline-Phenylalanine-para-nitro-anilide=SAAPFpNA(Sigma S-7388).
(§4) Buffer: 0.1 M Tris-HCl pH 8.6; 25° C.
(§5) Enzyme concentration in assay
(§6) The initial rate of substrate hydrolysis was determined at nine substrate concenterations in the range of 0.01 to 2 mM using a Cobas Fara automated spectrophotometer. The kinetic parameters Vmax and Km were determined using ENZFITTER (a non-linear regression data analysis program). kcat was calculated from the equation Vmax =kcat X[Eo ]. The concentration of active enzyme [Eo ] was determined by active site titration using tight-binding protein proteinase inhibitors. The inhibition constant Ki was calculated from plots of Km /kcat as a function of the concentration of inhibitor. The inhibitors were assumed to be 100% pure and the molar concentrations were determined using weighing numbers and molecular weights.

The target of assay [2] is T2, Alcalase (Bacillus licheniformis, UniProt P00780).
T2 construct: purchased Novo Nordisk A/S
T2 sequence (P00780 106-379): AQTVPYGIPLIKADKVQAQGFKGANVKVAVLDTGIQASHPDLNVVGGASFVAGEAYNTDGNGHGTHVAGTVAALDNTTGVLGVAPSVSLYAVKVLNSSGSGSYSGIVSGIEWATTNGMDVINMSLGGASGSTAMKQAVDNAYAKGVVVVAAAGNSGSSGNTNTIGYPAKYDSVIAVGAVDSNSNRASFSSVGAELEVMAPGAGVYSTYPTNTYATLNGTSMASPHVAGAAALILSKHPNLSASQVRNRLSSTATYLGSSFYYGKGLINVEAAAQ
Put plainly: biochemical. The conditions noted are these: substrate SAAPFpNA; 0.1 M Tris-HCl pH 8.6; 25° C.; Alcalase 1×10^-10 -3×10^-10 M.
Source text: as §1, §2, §3, §4, §5, §6

The target in assay [3] is T1, Savinase. Put plainly: Storage Stability Test in Liquid Detergent (improvement factor IFI, inhibition of protease). The format is biochemical, Bacillus. The following applies: US-type liquid detergent, 1% w/w Savinase + 1% w/w Lipolase, 0, 3, 7 and 14 days at 30° C. How it is done: a) Storage Stability Test in Licuid Deterrent: Enzyme(s) and stabilizer are added to a liquid detergent formulation and stored at well defined conditions. The enzyme activity of each enzyme is determined as a function of time, e.g. after 0, 3, 7 and 14 days.
To calculate the inhibition efficiency from the storage stability date a reaction mechanism is proposed.
From these reactions three coupled differential equations are derived describing the deactivation of P, L and PI. The reaction rate constants are derived from storage stability data by the use of a parameter estimation method (Gauss-Newton with the Levenberg modification). The storage stability data give the concentration of (P+PI) and L as a function of time.
Reaction IV is excluded from the system to reduce the number of parameters thereby describing the stability of the inhibited enzyme by only one reaction rate constant (from equation V).
In all experiments there is a large surplus of inhibitor molecules compared to protease molecules, i.e. a constant concentration of inhibitor (corresponding to the added amount of inhibitor) is a reasonable assumption.
An improvement factor is thus derived: [formula] IFI measures the inhibition efficiency given by the inhibition constants KI from reaction III.
Different boronic and borinic acid derivative enzyme stabilizers were also tested in storage stability tests in liquid detergents using the method described previously under the following conditions: […]

The subject of assay [4] is subtilisin. The following applies: Keller et al, Biochem. Biophys. Res. Com. 176, 1991; cited from earlier work.
The subject of assay [5] is proteolytic enzymes. The following applies: prior art; cited from earlier work.
[6] abbreviates: stabilizer 5 mmole/kg, relative to boric acid.

One may read the Ki as a measure of affinity in units of concentration, obtained from inhibition or displacement. Lower therefore signals tighter binding. In the case of `OB(O)c1cc2ccccc2o1`, the Ki in assay [1] worked out at 0.8 mM; in assay [2], 1 mM.
On to `Cc1cc(B(O)O)c(C)s1` [2,5-dimethylthiophene-3-boronic acid], for which the Ki in assay [1] was 6 mM; in assay [2], 3 mM. Besides, the “Improvement factor IFI” value in assay [3] (setting [6]) was determined as 7.
Take `OB(O)CCC1CCCCC1` [2-cyclohexylethyl]: the “capacity as subtilisin inhibitor” value in assay [4] is on record as “poor inhibitors”.
On to `OB(O)c1cc(Cl)cc(Cl)c1` [3,5-dichlorophenylboronic acid], for which, in assay [4], the “capacity as subtilisin inhibitor” value is “particularly effective”.
As to `OB(O)c1sccc1Br` [3-Bromothiophene-2-boronic acid], the inhibition constant Ki in assay [1] and in assay [2] was 2 mM each time.
In the case of `COc1ccsc1B(O)O` [3-Methoxythiophene-2-boronic acid], the Ki in assay [1] was determined as 1.2 mM; in assay [2] it was 3 mM. The “Improvement factor IFI” value in assay [3] (setting [6]) stood at 8.
Regarding `OB(O)CCc1cccc2[nH]c3ccccc3c12` [4-Carbazole ethyl boronic acid], the Ki in assay [1] turned out to be 2 mM; in assay [2], 1 mM.
Consider `Cc1csc(B(O)O)c1` [4-Methylthiophene-2-boronic acid], for which the Ki was determined as 3 mM in assay [1] and 1.8 mM in assay [2]. The “Improvement factor IFI” value in assay [3] (setting [6]) is recorded as 4.
`COc1ccc(B(O)O)cc1` [4-methoxyphenyl]: the “capacity as subtilisin inhibitor” value in assay [4] is “very good inhibitors”.
Take `OB(O)c1ccc(Br)s1` [5-Bromothiophene-2-boronic acid]: the figures for the Ki in assay [1] and in assay [2] were 0.2 mM and 0.4 mM, respectively. For the same compound, the “Improvement factor IFI” value in assay [3] (setting [6]) was found to be 124.
Taken in the same sequence, the figures for `OB(O)c1ccc(Cl)s1` [5-Chlorothiophene-2-boronic acid] were 0.2 mM, 0.3 mM and 123.
As for `CCc1ccc(B(O)O)o1` [5-Ethylfuran-2-boronic acid], the inhibition constant Ki in assay [1] was found to be 3 mM; in assay [2], 2 mM.
For the compound `CCc1ccc(B(O)O)s1` [5-Ethylthiophene-2-boronic acid], the Ki in assay [1] is 0.9 mM; in assay [2] it was 0.7 mM. Further, the “Improvement factor IFI” value in assay [3] (setting [6]) was 66.
Take `COc1ccc(B(O)O)o1` [5-Methoxyfuran-2-boronic acid]: the Ki in assay [1] was determined as 3 mM; in assay [2], 2 mM.
As for `COc1ccc(B(O)O)s1` [5-Methoxythiophene-2-boronic acid], the inhibition constant Ki in assay [1] turned out to be 1 mM; in assay [2], 2 mM. For the same compound, in assay [3] (setting [6]), the “Improvement factor IFI” value is listed as 14.
Taken in the same sequence, the figures for `Cc1ccc(B(O)O)s1` [5-Methylthiophene-2-boronic acid] were 3 mM, 2 mM and 12.
`CCCc1ccc(B(O)O)s1` [5-n-Propylthiophene-2-boronic acid]: the Ki amounted to 3 mM in assay [1] and 1.5 mM in assay [2].
Turning to `OB(O)c1cc2ccccc2o1` [Benzofuran-2-boronic acid], the “Improvement factor IFI” value in assay [3] (setting [6]) was 190.
In the case of `OB(O)O` [Boric acid, reference compound], the “inhibition of proteolytic enzymes” value in assay [5] is “reversibly inhibit proteolytic enzymes”. The “Improvement factor IFI” value in assay [3] (reference, boric acid 160 mmole/kg) stood at 1.
With `OB(O)c1cccc2oc3ccccc3c12` [Dibenzofuran-1-boronic acid], the Ki was determined as 1.5 mM in assay [1] and 1.1 mM in assay [2]. Also, in assay [3] (setting [6]), the “Improvement factor IFI” value is listed as 9.
Take `OB(O)c1cccc2c1oc1ccccc12` [Dibenzofuran-4-boronic acid]: the Ki in assay [1] stood at 1.1 mM; in assay [2], 0.9 mM. Further, the “Improvement factor IFI” value in assay [3] (setting [6]) was 19.
Taken in the same sequence, the figures for `OB(O)c1cccc2sc3ccccc3c12` [Dibenzothiophene-1-boronic acid] were 1.5 mM, 0.9 mM and 12.
Consider `OB(c1ccccc1)c1ccccc1` [Diphenylborinic acid (ethanolamine complex)], for which the Ki came out at 4 mM in assay [1] and 2 mM in assay [2].
For `OB(O)c1ccco1` [Furan-2-boronic acid], the Ki came to 4 mM in assay [1] and 3 mM in assay [2]. In addition, the “Improvement factor IFI” value in assay [3] (setting [6]) amounted to 13.
Taken in the same sequence, the figures for `OB(O)c1ccoc1` [Furan-3-boronic acid] were 7 mM, 10 mM and 32.
In the case of `OB(O)c1cc2ccccc2s1` [Thionaphthrene-1-boronic acid], the inhibitory constant (Ki) was 3 mM in assay [1] and 2 mM in assay [2]. Also, the “Improvement factor IFI” value in assay [3] (setting [6]) turned out to be 20.
In the same order, the values of `OB(O)c1cccs1` [Thiophene-2-boronic acid] are 2 mM, 2 mM and 72.
In the same order, the values of `OB(O)c1ccsc1` [Thiophene-3-boronic acid] are 2 mM, 2 mM and 63.
In the case of `CCCCB(O)O` [butyl], the “capacity as subtilisin inhibitor” value in assay [4] is “poor inhibitors”.
For `CB(O)O` [methylboronic acid], the “capacity as subtilisin inhibitor” value in assay [4] was “poorest inhibitor”.
`OB(O)c1ccccc1` [phenyl]: the “capacity as subtilisin inhibitor” value in assay [4] is given as “very good inhibitors”.
Regarding Picoline-2-boronic acid, the figures for the Ki in assay [1] and in assay [2] were 4 mM and 3 mM, respectively.
On to acetamidobenzene boronic acid, for which the “inhibition of proteolytic enzymes” value in assay [5] is “superior inhibitor of proteolytic enzymes”.
